Assay results from ChEMBL document CHEMBL2046335, “Synthesis and discovery of N-carbonylpyrrolidine- or N-sulfonylpyrrolidine-containing uracil derivatives as potent human deoxyuridine triphosphatase inhibitors” (J Med Chem, 2012).

Experiments:
[1] = target: T1, Deoxyuridine 5'-triphosphate nucleotidohydrolase, mitochondrial (Homo sapiens, UniProt P33316); test: Inhibition of human dUTPase using [5-3H]dUTP as substrate after 15 mins by HPLC analysis
T1 sequence (P33316 whole entry): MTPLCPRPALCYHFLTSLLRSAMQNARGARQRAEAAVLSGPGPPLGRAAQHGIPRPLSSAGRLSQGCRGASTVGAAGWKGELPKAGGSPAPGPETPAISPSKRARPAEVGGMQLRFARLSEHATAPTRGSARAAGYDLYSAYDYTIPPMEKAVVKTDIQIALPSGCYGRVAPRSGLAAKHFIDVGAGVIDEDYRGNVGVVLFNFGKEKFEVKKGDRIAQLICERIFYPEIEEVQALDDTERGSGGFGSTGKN

[2] = Competitive inhibition of Escherichia coli dUTPase
[3] = Antiproliferative activity against human HeLaS3 cells after 72 hrs by crystal violet assay; format: functional, cell-based; settings: HeLa S3, 72 h
[4] = Potentiation of antiproliferative activity of FdUrd against human HeLaS3 cells assessed as reduction in FdUrd T/C value by half after 24 hrs by crystal violet assay; format: functional, cell-based; settings: HeLa S3, 24 h
[5] = target: T1, Deoxyuridine 5'-triphosphate nucleotidohydrolase, mitochondrial; test: Inhibition of human dUTPase

| Structure (SMILES) | IC50 [1] [µM] | further results |
| --- | --- | --- |
| O=c1ccn([C@H]2C[C@H](O)[C@@H](COP(=O)(O)NP(=O)(O)OP(=O)(O)O)O2)c(=O)[nH]1 | 15 | Ki [2]: 5 µM |
| O=c1ccn(CCCS(=O)(=O)N2CCC[C@@H]2C(O)(c2ccccc2)c2ccccc2)c(=O)[nH]1 | 0.32 | EC50 [3]: > 100 µM; EC50 [4]: 0.3 µM |
| O=C(CCCn1ccc(=O)[nH]c1=O)N1CCC[C@H]1C(O)(c1ccccc1)c1ccccc1 | 0.29 | EC50 [3]: > 100 µM; EC50 [4]: 0.27 µM |
| O=c1ccn([C@H]2C[C@H](O)[C@@H](COP(=O)(O)CP(=O)(O)OP(=O)(O)OCc3ccccc3)O2)c(=O)[nH]1 | – | Ki [5]: 0.3 µM |
| CC(C)(C)NC(=O)CCCn1ccc(=O)[nH]c1=O | 97 | – |
| CC(C)(C)CC(C)(C)NC(=O)CCn1ccc(=O)[nH]c1=O | > 30 | – |
| CCC(CC)(CC)NC(=O)CCn1ccc(=O)[nH]c1=O | 22 | – |
| CC(C)(C)NC(=O)CCn1ccc(=O)[nH]c1=O | > 30 | – |
| O=C(CCn1ccc(=O)[nH]c1=O)N(Cc1ccccc1)Cc1ccccc1 | > 30 | – |
| O=C(CCn1ccc(=O)[nH]c1=O)NC(c1ccccc1)c1ccccc1 | > 30 | – |
| O=C(CCn1ccc(=O)[nH]c1=O)NCC(c1ccccc1)c1ccccc1 | > 30 | – |
| O=C(CCn1ccc(=O)[nH]c1=O)NCCC(c1ccccc1)c1ccccc1 | > 30 | – |
| O=C(CCn1ccc(=O)[nH]c1=O)N1CCC(Cc2ccccc2)CC1 | > 30 | – |
| CC(C)(NC(=O)CCn1ccc(=O)[nH]c1=O)C(O)(c1ccccc1)c1ccccc1 | 7.3 | – |
| O=C(CCCn1ccc(=O)[nH]c1=O)Nc1ccccc1 | > 30 | – |
| CC(C)(C)CC(C)(C)NC(=O)CCCn1ccc(=O)[nH]c1=O | 30 | – |
| O=C(CCCn1ccc(=O)[nH]c1=O)NCc1ccccc1 | > 30 | – |
| CC(C)(Cc1ccccc1)NC(=O)CCCn1ccc(=O)[nH]c1=O | > 30 | – |
| CC(C)(NC(=O)CCCn1ccc(=O)[nH]c1=O)c1ccccc1 | > 30 | – |
| CCC(CC)(CC)NC(=O)CCCn1ccc(=O)[nH]c1=O | > 30 | – |
| O=C(CCCn1ccc(=O)[nH]c1=O)NC(c1ccccc1)c1ccccc1 | > 30 | – |
| O=C(CCCn1ccc(=O)[nH]c1=O)NCC(c1ccccc1)c1ccccc1 | 16 | – |

| Structure (SMILES) | IC50 [1] [µM] | further results |
| --- | --- | --- |
| CC(C)(NC(=O)CCCn1ccc(=O)[nH]c1=O)C(O)(c1ccccc1)c1ccccc1 | 2.5 | EC50 [3]: > 100 µM; EC50 [4]: 3 µM |
| CN(CC(c1ccccc1)c1ccccc1)C(=O)CCCn1ccc(=O)[nH]c1=O | 1.3 | EC50 [3]: > 100 µM; EC50 [4]: 1.2 µM |
| CC(C)(Cc1ccc2ccccc2c1)NC(=O)CCCn1ccc(=O)[nH]c1=O | > 30 | – |
| CC(C)(CCc1ccccc1)NC(=O)CCCn1ccc(=O)[nH]c1=O | 21 | – |
| CC(C)(CO)NC(=O)CCCn1ccc(=O)[nH]c1=O | > 30 | – |
| CN(CC(O)(c1ccccc1)c1ccccc1)C(=O)CCCn1ccc(=O)[nH]c1=O | 1.1 | – |
| O=C(CCCn1ccc(=O)[nH]c1=O)N1CCC[C@@H]1C(O)(c1ccccc1)c1ccccc1 | 10 | – |
| O=C(CCCn1ccc(=O)[nH]c1=O)N1CCC[C@H]1C(O)(c1cccc(F)c1)c1cccc(F)c1 | 0.35 | – |
| O=C(CCCn1ccc(=O)[nH]c1=O)N1CCC[C@H]1C(O)(c1ccc(F)cc1)c1ccc(F)cc1 | 0.6 | – |
| O=C(CCCn1ccc(=O)[nH]c1=O)N1CCC[C@H]1C(O)(c1cccc(Cl)c1)c1cccc(Cl)c1 | 0.58 | – |
| O=C(CCCn1ccc(=O)[nH]c1=O)N1CCC[C@H]1C(O)(c1ccc(Cl)cc1)c1ccc(Cl)cc1 | > 1 | – |
| COc1ccccc1C(O)(c1ccccc1OC)[C@@H]1CCCN1C(=O)CCCn1ccc(=O)[nH]c1=O | > 1 | – |
| COc1cccc(C(O)(c2cccc(OC)c2)[C@@H]2CCCN2C(=O)CCCn2ccc(=O)[nH]c2=O)c1 | > 1 | – |
| COc1ccc(C(O)(c2ccc(OC)cc2)[C@@H]2CCCN2C(=O)CCCn2ccc(=O)[nH]c2=O)cc1 | > 1 | – |
| O=C(CCCn1ccc(=O)[nH]c1=O)N1CCC[C@H]1C(O)(c1cccc(-c2ccsc2)c1)c1cccc(-c2ccsc2)c1 | 0.23 | – |
| O=C(CCCn1ccc(=O)[nH]c1=O)N1CCC[C@H]1C(c1ccccc1)c1ccccc1 | 0.15 | – |
| O=C(CCn1ccc(=O)[nH]c1=O)N1CCC[C@H]1C(O)(c1ccccc1)c1ccccc1 | > 1 | – |
| O=c1ccn(CCCS(=O)(=O)N2CCC[C@H]2C(O)(c2ccccc2)c2ccccc2)c(=O)[nH]1 | 9.4 | – |
| O=c1ccn(CCCS(=O)(=O)N2CCC[C@@H]2C(O)(c2cccc(F)c2)c2cccc(F)c2)c(=O)[nH]1 | 0.28 | – |
| O=c1ccn(CCCS(=O)(=O)N2CCC[C@@H]2C(O)(c2ccc(F)cc2)c2ccc(F)cc2)c(=O)[nH]1 | 0.31 | – |
| COc1ccccc1C(O)(c1ccccc1OC)[C@H]1CCCN1S(=O)(=O)CCCn1ccc(=O)[nH]c1=O | > 1 | – |
| COc1cccc(C(O)(c2cccc(OC)c2)[C@H]2CCCN2S(=O)(=O)CCCn2ccc(=O)[nH]c2=O)c1 | > 1 | – |
